{
  "source": "patent US11840527B2",
  "about": "“Non-fused thiophene derivatives and their uses” (ENYO PHARMA, priority 2018, dated 2023)",
  "tested_on": "H1N1 (influenza A/New Caledonia/20/99)",
  "assay": "Antiviral effect on A549 cells infected with H1N1",
  "type": "cell-based, H1N1 A/New Caledonia/20/99 virus",
  "settings": "Influenza A virus, MOI 0.1, 48 h post-infection, MUNANA neuraminidase readout",
  "procedure": "The antiviral effect of the compounds of the invention have been tested on A549 cell lines infected with H1N1 (influenza A/New Caledonia/20/99).\nHuman A549 cells (80,000 cells/well in a 96 well plate) were treated with a range of concentration of test compounds and immediately infected by H1N1 A/New Caledonia/20/99 virus (clinical isolate) at MOI of 0.1 in DMEM/1% Penicillin/streptomycin supplemented with […] TPCK trypsin (Sigma) and incubated at 37° C. in 5% CO2. 48 h post-infection, supernatants (25 μl) were collected and transferred into a 96-well black flat-bottom plate, mixed with 25 μl PBS with Ca++/Mg++ (Thermo Fisher) and 50 μl of 2′-(4-Methylumbelliferyl)-ax-D-N-acetylneuraminic acid sodium salt hydrate stock-solution (20 μM, MUNANA, Sigma). Plates were incubated 1h at 37° C. and reaction is stopped by adding 100 μl of Stop Solution (glycine 0.1 M pH10.7/25% ethanol). The amount of fluorescent product released by MUNANA hydrolysis (4-MU) was measured in a Tecan spectrophotometer with excitation and emission wavelengths of 365 and 450 nm respectively.",
  "note": "Structures can show the parent of a compound that is named as a salt.",
  "data": [
    {"compound": "Cc1ccc(-c2c(Cl)sc(NC(=O)c3ccccc3)c2C(=O)O)cc1C", "note": "[Compound #23, 2-Benzamido-5-chloro-4-(3,4-dimethylphenyl)thiophene-3-carboxylic acid]", "values": [
      {"measurement": "IC50", "result": 420, "unit": "nM"}
    ]},
    {"compound": "Cc1sc(NC(=O)c2ccc(OC(F)F)cc2)c(C(=O)O)c1-c1ccc(Cl)cc1", "note": "[Compound #5, 4-(4-Chlorophenyl)-2-[[4-(difluoromethoxy)benzoyl]amino]-5-methyl-thiophene-3-carboxylic acid]", "values": [
      {"measurement": "IC50", "result": 260, "unit": "nM"}
    ]},
    {"compound": "Cc1ccccc1C(=O)Nc1sc(-c2ccccc2)cc1C(=O)O", "note": "[Compound #45, 2-[(2-Methylbenzoyl)amino]-5-phenyl-thiophene-3-carboxylic acid]", "values": [
      {"measurement": "IC50", "result": 8550, "unit": "nM"}
    ]},
    {"compound": "Cc1sc(NC(=O)c2ccccc2)c(C(=O)O)c1-c1ccc(Cl)cc1", "note": "[Compound #4, 2-Benzamido-4-(4-chlorophenyl)-5-methyl-thiophene-3-carboxylic acid]", "values": [
      {"measurement": "IC50", "result": 170, "unit": "nM"}
    ]},
    {"compound": "CC(C)Cc1csc(NC(=O)c2ccccc2)c1C(=O)O", "note": "[Compound #96, 2-Benzamido-4-isobutyl-thiophene-3-carboxylic acid]", "values": [
      {"measurement": "IC50", "result": 610, "unit": "nM"}
    ]},
    {"compound": "O=C(Nc1scc(C2CCc3ccccc3O2)c1C(=O)O)c1ccccc1", "note": "(stereo not shown) [Compound #85, 2-Benzamido-4-chroman-2-yl-thiophene-3-carboxylic acid]", "values": [
      {"measurement": "IC50", "result": 506, "unit": "nM"}
    ]},
    {"compound": "Cc1ccc(-c2csc(NC(=O)c3ccccc3)c2C(=O)O)cc1", "note": "[Compound #21, 2-Benzamido-4-(p-tolyl)thiophene-3-carboxylic acid]", "values": [
      {"measurement": "IC50", "result": 610, "unit": "nM"}
    ]},
    {"compound": "Cc1sc(NC(=O)c2ccc(OC(F)F)cc2)c(C(=O)O)c1-c1ccccc1", "note": "[Compound #30, 2-[[4-(Difluoromethoxy)benzoyl]amino]-5-methyl-4-phenyl-thiophene-3-carboxylic acid]", "values": [
      {"measurement": "IC50", "result": 1370, "unit": "nM"}
    ]},
    {"compound": "COCCOc1ccc(C(=O)Nc2scc(C3COc4ccccc4C3)c2C(=O)O)cc1", "note": "(stereo not shown) [Compound #95, 4-Chroman-3-yl-2-[[4-(2-methoxyethoxy)benzoyl]amino]thiophene-3-carboxylic acid]", "values": [
      {"measurement": "IC50", "result": 610, "unit": "nM"}
    ]},
    {"compound": "CC(C)(C)c1csc(NC(=O)c2ccc(NCC3CCOCC3)cc2)c1C(=O)O", "note": "[Compound #91, 4-Tert-butyl-2-[[4-(tetrahydropyran-4-ylmethylamino)benzoyl]amino]thiophene-3-carboxylic acid]", "values": [
      {"measurement": "IC50", "result": 120, "unit": "nM"}
    ]},
    {"compound": "O=C(Nc1sc(Cl)c(-c2ccc(C(F)(F)F)cc2)c1C(=O)O)c1ccccc1", "note": "[Compound #50, 2-Benzamido-5-chloro-4-[4-(trifluoromethyl)phenyl]thiophene-3-carboxylic acid]", "values": [
      {"measurement": "IC50", "result": 320, "unit": "nM"}
    ]},
    {"compound": "CC(C)(C)c1csc(NC(=O)c2ccc(NCC3CCCOC3)cc2)c1C(=O)O", "note": "(stereo not shown) [Compound #119, 4-tert-Butyl-2-[[4-(tetrahydropyran-3-ylmethylamino)benzoyl]amino]thiophene-3-carboxylic acid]", "values": [
      {"measurement": "IC50", "result": 100, "unit": "nM"}
    ]},
    {"compound": "O=C(Nc1scc(-c2ccccc2)c1C(=O)O)c1ccc(OC(F)F)cc1", "note": "[Compound #28, 2-[[4-(Difluoromethoxy)benzoyl]amino]-4-phenyl-thiophene-3-carboxylic acid]", "values": [
      {"measurement": "IC50", "result": 1270, "unit": "nM"}
    ]},
    {"compound": "CC(C)(C)c1csc(NC(=O)c2ccccc2)c1C(=O)O", "note": "[Compound #32, 2-Benzamido-4-tert-butyl-thiophene-3-carboxylic acid]", "values": [
      {"measurement": "IC50", "result": 1470, "unit": "nM"}
    ]},
    {"compound": "O=C(Nc1sc(Cl)c(-c2ccc(Cl)c(F)c2)c1C(=O)O)c1ccccc1", "note": "[Compound #6, 2-Benzamido-5-chloro-4-(4-chloro-3-fluoro-phenyl)thiophene-3-carboxylic acid]", "values": [
      {"measurement": "IC50", "result": 247, "unit": "nM"}
    ]},
    {"compound": "O=C(Nc1scc(C2CCCCC2)c1C(=O)O)c1ccc(OC(F)F)cc1", "note": "[Compound #11, 4-Cyclohexyl-2-[[4-(difluoromethoxy)benzoyl]amino]thiophene-3-carboxylic acid]", "values": [
      {"measurement": "IC50", "result": 412, "unit": "nM"}
    ]},
    {"compound": "CC(C)(C)c1csc(NC(=O)c2ccc(NC3CCOCC3)cc2)c1C(=O)O", "note": "[Compound #105, 4-tert-Butyl-2-[[4-(tetrahydropyran-4-ylamino)benzoyl]amino]thiophene-3-carboxylic acid]", "values": [
      {"measurement": "IC50", "result": 680, "unit": "nM"}
    ]},
    {"compound": "COCCN(C)c1ccc(C(=O)Nc2scc(C(C)(C)C)c2C(=O)O)cc1", "note": "[Compound #117, 4-tert-Butyl-2-[[4-[2-methoxyethyl(methyl)amino]benzoyl]amino]thiophene-3-carboxylic acid]", "values": [
      {"measurement": "IC50", "result": 76, "unit": "nM"}
    ]},
    {"compound": "O=C(Nc1sc(Cl)c(-c2ccccc2)c1C(=O)O)c1ccccc1", "note": "[Compound #33, 2-Benzamido-5-chloro-4-phenyl-thiophene-3-carboxylic acid]", "values": [
      {"measurement": "IC50", "result": 1470, "unit": "nM"}
    ]},
    {"compound": "O=C(Nc1scc(-c2ccccc2Cl)c1C(=O)O)c1ccccc1", "note": "[Compound #44, 2-Benzamido-4-(2-chlorophenyl)thiophene-3-carboxylic acid]", "values": [
      {"measurement": "IC50", "result": 6650, "unit": "nM"}
    ]},
    {"compound": "CCOC1CN(c2ccc(C(=O)Nc3scc(C(C)(C)C)c3C(=O)O)cc2)C1", "note": "[Compound #104, 4-tert-Butyl-2-[[4-(3-ethoxyazetidin-1-yl)benzoyl]amino]thiophene-3-carboxylic acid]", "values": [
      {"measurement": "IC50", "result": 240, "unit": "nM"}
    ]},
    {"compound": "COC1CN(c2ccc(C(=O)Nc3scc(C(C)(C)C)c3C(=O)O)cc2)C1", "note": "[Compound #92, 4-tert-Butyl-2-[[4-(3-methoxyazetidin-1-yl)benzoyl]amino]thiophene-3-carboxylic acid]", "values": [
      {"measurement": "IC50", "result": 260, "unit": "nM"}
    ]},
    {"compound": "O=C(Nc1sc(C2CCCCC2)cc1C(=O)O)c1ccc(OC(F)F)cc1", "note": "[Compound #41, 5-Cyclohexyl-2-[[4-(difluoromethoxy)benzoyl]amino]thiophene-3-carboxylic acid]", "values": [
      {"measurement": "IC50", "result": 2570, "unit": "nM"}
    ]},
    {"compound": "O=C(Nc1scc(C2C3CCCCC32)c1C(=O)O)c1ccccc1", "note": "(stereo not shown) [Compound #37, 2-Benzamido-4-norcaran-7-yl-thiophene-3-carboxylic acid]", "values": [
      {"measurement": "IC50", "result": 1870, "unit": "nM"}
    ]},
    {"compound": "O=C(Nc1scc(C2CC(c3ccccc3)C2)c1C(=O)O)c1ccccc1", "note": "(stereo not shown) [Compound #63, 2-Benzamido-4-(3-phenylcyclobutyl)thiophene-3-carboxylic acid]", "values": [
      {"measurement": "IC50", "result": 150, "unit": "nM"}
    ]},
    {"compound": "CN(CC1CCOCC1)c1ccc(C(=O)Nc2scc(C(C)(C)C)c2C(=O)O)cc1", "note": "[Compound #120, 4-tert-Butyl-2-[[4-[methyl(tetrahydropyran-4-ylmethyl)amino]benzoyl]amino]thiophene-3-carboxylic acid]", "values": [
      {"measurement": "IC50", "result": 100, "unit": "nM"}
    ]},
    {"compound": "COC1CN(c2ccc(C(=O)Nc3scc(CC(C)C)c3C(=O)O)cc2)C1", "note": "[Compound #109, 4-iso-Butyl-2-[[4-(3-methoxyazetidin-1-yl)benzoyl]amino]thiophene-3-carboxylic acid diethylamine salt]", "values": [
      {"measurement": "IC50", "result": 200, "unit": "nM"}
    ]},
    {"compound": "COC1CN(c2ccc(C(=O)Nc3sc(C)c(C)c3C(=O)O)cc2)C1", "note": "[Compound #100, 2-[[4-(3-Methoxyazetidin-1-yl)benzoyl]amino]-4,5-dimethyl-thiophene-3-carboxylic acid]", "values": [
      {"measurement": "IC50", "result": 44.5, "unit": "nM"}
    ]},
    {"compound": "COC1CN(c2ccc(C(=O)Nc3scc(C4(C)CC4)c3C(=O)O)cc2)C1", "note": "[Compound #112, 2-[[4-(3-Methoxyazetidin-1-yl)benzoyl]amino]-4-(1-methylcyclopropyl) thiophene-3-carboxylic acid]", "values": [
      {"measurement": "IC50", "result": 380, "unit": "nM"}
    ]},
    {"compound": "COC1CN(c2ccc(C(=O)Nc3scc(C4(C)CCC4)c3C(=O)O)cc2)C1", "note": "[Compound #115, 2-[[4-(3-Methoxyazetidin-1-yl)benzoyl]amino]-4-(1-methylcyclobutyl) thiophene-3-carboxylic acid]", "values": [
      {"measurement": "IC50", "result": 240, "unit": "nM"}
    ]},
    {"compound": "CC(C)(C)c1csc(NC(=O)c2ccc(NC3CCCOC3)cc2)c1C(=O)O", "note": "(stereo not shown) [Compound #118, 4-tert-Butyl-2-[[4-(tetrahydropyran-3-ylamino)benzoyl]amino]thiophene-3-carboxylic acid]", "values": [
      {"measurement": "IC50", "result": 200, "unit": "nM"}
    ]}
  ]
}
